Source: patent publication US10882856B2 (BeiGene, Ltd., priority 2017, dated 2021)

Columns and labels:
[1] = biological target: T1, cellular TDO2 in HEK293-TDO2 cells (Homo sapiens, UniProt P48775); test: 293-TDO2 cell-based assay (Kyn colorimetric); settings: 48 hours of incubation
T1 construct: expressed in transfected cells; host or cells: HEK293 (ATCC), stably transfected
Procedure: The inhibitory activity of TDO2 inhibitors is determined by using a colorimetric reaction to measure Kyn generated from L-Trp (L-Tryptophon) oxidation by cellular TDO2 in HEK293-TDO2 cells stably transfected with a plasmid expression of Tryptophan 2,3-dioxygenase (for short, 293-TDO2).
HEK293 cells were obtained from the American Type Culture Collection and 293-TDO2 were recovered in 10% FBS-containing phenol red-free DMEM medium. Cells were plated onto a 96-well plate (100 μl/well) at 10000 cells per well and kept at 37° C. in a humidified incubator supplied with 5% CO2. 4 hours later, Compounds at different concentrations diluted in dimethylsulfoxide (DMSO) were added to plate. Cells were kept at 37° C. in a humidified incubator supplied with 5% CO2. After 48 hours of incubation, 100 μl supernatant from each well was removed to a new plate. The protein in the medium was precipitated with the addition of 8 μl 6N trichloroacetic acid. The plate was incubated at 60° C. for 30 minutes and then centrifugation at 2500 rpm for 10 minutes to remove sediments. 80 μl supernatants were carefully removed to a new clean plate and added with an equal volume of 2% 4-(Dimethylamino) benzaldehyde (D2004, sigma) dissolved in glacial acetic acid. The absorbance at 480 nm wavelength derived from Kyn was measured using a PHERAstar FS plate reader (BMG LABTECH). The IC50 for each compound was derived from fitting the dose-response data to the four-parameter logistic model by using XLfit software (IDBS).

IDO1 [2] = biological target: T2, IDO1 (Homo sapiens, UniProt P14902); test: IDO1 enzymatic assay; assay type: biochemical; design: His tag (N); made in house; host or cells: E. coli; settings: read-out: Enzyme IC50 IDO1
T2 sequence (P14902 whole entry): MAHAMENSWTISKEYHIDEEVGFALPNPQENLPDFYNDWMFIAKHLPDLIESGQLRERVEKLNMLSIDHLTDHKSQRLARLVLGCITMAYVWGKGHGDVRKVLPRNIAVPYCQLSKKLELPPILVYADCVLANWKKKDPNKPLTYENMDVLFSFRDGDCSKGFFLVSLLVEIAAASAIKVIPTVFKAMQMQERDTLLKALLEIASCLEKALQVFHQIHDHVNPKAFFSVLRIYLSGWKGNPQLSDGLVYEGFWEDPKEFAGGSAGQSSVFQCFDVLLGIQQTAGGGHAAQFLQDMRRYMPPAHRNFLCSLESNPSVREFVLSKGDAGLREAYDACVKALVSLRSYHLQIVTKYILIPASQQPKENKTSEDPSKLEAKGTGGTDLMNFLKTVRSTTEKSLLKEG
Summary of the method: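 Recombinant IDO1 carrying an N-terminal His tag and purified from E. coli was used at 50 nM with test compound, 1.3 mM D-tryptophan, 5 mM L-ascorbic acid, methylene blue and 0.4 mg/mL catalase in 50 mM potassium phosphate pH 7.5 containing 0.1% BSA. This mixture was incubated at 24 °C for 1.5 hours, after which N'-formylkynurenine formation was followed continuously at 321 nm for 1 hour and activity was taken as the slope. IC50 was derived from the enzyme activity remaining as compound concentration increased.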

IDO1 [3] = biological target: T2, IDO1; test: Hela cell-based IDO1 assay; settings: Hela cells
Summary of the method: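 HeLa cells were seeded at 8000 per well in 96-well plates in phenol red-free DMEM with 10% FBS. After 4 hours, DMSO-diluted compound dilutions were added with IFN-γ (final 100 ng/mL) and 0.4 mM L-Trp, and cells were kept 48 hours at 37 °C, 5% CO2. Supernatant was deproteinised with trichloroacetic acid, and kynurenine was measured at 480 nm after adding 2% 4-(dimethylamino)benzaldehyde. Potency came from four-parameter logistic fits in XLfit.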

T1 sequence (P48775 whole entry): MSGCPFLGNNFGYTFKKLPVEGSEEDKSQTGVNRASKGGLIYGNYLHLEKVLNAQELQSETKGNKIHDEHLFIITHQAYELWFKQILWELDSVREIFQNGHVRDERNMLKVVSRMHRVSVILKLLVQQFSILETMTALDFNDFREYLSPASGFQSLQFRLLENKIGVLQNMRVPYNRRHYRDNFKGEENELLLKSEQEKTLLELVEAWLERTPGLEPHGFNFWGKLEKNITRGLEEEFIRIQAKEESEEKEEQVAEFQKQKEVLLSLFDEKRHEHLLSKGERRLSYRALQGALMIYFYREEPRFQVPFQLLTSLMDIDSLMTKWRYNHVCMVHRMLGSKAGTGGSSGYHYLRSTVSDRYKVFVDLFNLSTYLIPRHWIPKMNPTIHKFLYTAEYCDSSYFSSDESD

Row | SMILES | EC50 [1] | IC50 (IDO1 [2]) | EC50 (IDO1 [3])
1 | OC(c1c(C2CC2)ccn2cncc12)C1CCN(c2cccc(Cl)c2)CC1 (centres unmarked) [Example C140, (1-(3-chlorophenyl)piperidin-4-yl)(7-cyclopropylimidazo[1,5-a]pyridin-8-yl)methanol] | > 10000 nM | 140 nM | 304 nM
2 | OC(c1cc(Cl)cc2cncn12)C1CCC(c2ccc3ccccc3c2)CC1 (centres unmarked) [Example E104, (7-chloroimidazo[1,5-a]pyridin-5-yl)(4-(naphthalen-2-yl)cyclohexyl)methanol] | > 10000 nM | 80 nM | 5440 nM
3 | O[C@@H](c1c(C2CC2)ccc2cncn12)[C@H]1CC[C@H](c2cccc(Cl)c2)CC1 (single isomer, unassigned) [Example D116b] | > 10000 nM | 5900 nM | 6150 nM
4 | OC(c1c(C2CC2)ccn2cncc12)C1CCN(c2ccc(Cl)c3ncccc23)CC1 (centres unmarked) [Example C154, (1-(8-chloroquinolin-5-yl)piperidin-4-yl)(7-cyclopropylimidazo[1,5-a]pyridin-8-yl)methanol] | > 10000 nM | 36 nM | 49 nM
5 | N#Cc1ccc([C@H]2CC[C@H]([C@@H](O)c3c(C4CC4)ccc4cncn34)CC2)cc1 (single isomer, unassigned) [Example D110b] | > 10000 nM | > 10000 nM | > 10000 nM
6 | O[C@@H](c1c(C2CC2)ccn2cncc12)[C@H]1CC[C@H](c2ccccc2F)CC1 (single isomer, unassigned) [Example C108b] | > 10000 nM | 7300 nM | > 10000 nM
7 | O[C@H](c1c(C2CC2)ccc2cncn12)C1CCN(c2ccc(F)cc2)CC1 (single isomer, unassigned) [Example D171a] | > 10000 nM | 15 nM | 30 nM
8 | COc1cccc(C2CCC(C(O)c3c(C(C)C)ccc4cncn34)CC2)c1 (centres unmarked) [Example D169, (6-isopropylimidazo[1,5-a]pyridin-5-yl)(4-(3-methoxyphenyl)cyclohexyl)methanol] | > 10000 nM | 28 nM | 22 nM
9 | O[C@@H](c1c(C2CC2)ccc2cncn12)C1CCN(c2ccc(F)c3ncccc23)CC1 (single isomer, unassigned) [Example D175b] | > 10000 nM | 740 nM | 407 nM
10 | O=C(Nc1ccc(C2CCC(C(O)c3c(C4CC4)ccc4cncn34)CC2)cc1)OCc1ccccc1 (centres unmarked) [Example D121] | > 10000 nM | 73 nM | 606 nM
11 | OC(c1c(C2CC2)ccc2cncn12)[C@H]1CC[C@H](c2ccc(OC3CCOCC3)cc2)CC1 (single isomer, unassigned) [Example D114b] | > 10000 nM | 2600 nM | 3970 nM
12 | OC(c1c(C2CC2)ccc2cncn12)[C@H]1CC[C@H](c2cccc(F)c2F)CC1 (single isomer, unassigned) [Example D132b] | – | 7500 nM | > 10000 nM
13 | O[C@H](c1c(C2CC2)ccc2cncn12)C1CCN(c2ccccc2)CC1 (single isomer, unassigned) [Example D170a] | > 10000 nM | – | 22 nM
14 | O[C@H](c1c(C2CC2)ccc2cncn12)C1CCN(c2ccc(Cl)c3ncccc23)CC1 (single isomer, unassigned) [Example D178a] | > 10000 nM | – | 9.7 nM
15 | OC(c1c(C2CC2)ccn2cncc12)C1CCC(c2ccc(F)c(F)c2)CC1 (centres unmarked) [Example C131, (7-cyclopropylimidazo[1,5-a]pyridin-8-yl)(4-(3,4-difluorophenyl)cyclohexyl)methanol] | > 10000 nM | 110 nM | –

More lines, now with the values ahead:

Row | EC50 [1] | IC50 (IDO1 [2]) | EC50 (IDO1 [3]) | SMILES
16 | > 10000 nM | 28 nM | 58 nM | OC(c1c(C2CC2)ccc2cncn12)C1CCN(c2cccc(F)c2)CC1 (centres unmarked) [Example D172]
17 | > 10000 nM | 44 nM | 107 nM | OC(c1c(C2CC2)ccc2cncn12)C1CCC(c2cccc(Cl)c2)CC1 (centres unmarked) [Example D116, (4-(3-chlorophenyl)cyclohexyl)(6-cyclopropylimidazo[1,5-a]pyridin-5-yl)methanol]
18 | > 10000 nM | 9900 nM | 6830 nM | O[C@@H](c1c(C2CC2)ccc2cncn12)[C@H]1CC[C@H](c2ccc(F)cc2)CC1 (single isomer, unassigned) [Example D104b]
19 | > 10000 nM | 28 nM | 27 nM | OC(c1c(C2CC2)ccc2cncn12)[C@H]1CC[C@H](c2csc3ccccc32)CC1 (single isomer, unassigned) [Example D155a]
20 | > 10000 nM | 25 nM | 107 nM | OCCn1cc(-c2ccc(N3CCC(C(O)c4c(C5CC5)ccc5cncn45)CC3)cc2)cn1 (centres unmarked) [Example D177]
21 | > 10000 nM | 2500 nM | 6220 nM | O[C@@H](c1c(C2CC2)ccn2cncc12)[C@H]1CC[C@H](c2ccnc3ccccc32)CC1 (single isomer, unassigned) [Example C130b]
22 | > 10000 nM | 35 nM | 184 nM | OC(c1c(C2CC2)ccn2cncc12)C1CCC(c2ccc(OC3COC3)cc2)CC1 (centres unmarked) [Example C117, (7-cyclopropylimidazo[1,5-a]pyridin-8-yl)(4-(4-(oxetan-3-yloxy)phenyl)cyclohexyl)methanol]
23 | > 10000 nM | 21 nM | 43 nM | OC(c1c(C2CC2)ccc2cncn12)C1CCN(c2ccccc2)CC1 (centres unmarked) [Example D170, (6-cycloropylimidazo[1,5-a]pyridin-5-yl)(1-phenylpiperidin-4-yl)methanol]
24 | > 10000 nM | 50 nM | 279 nM | OC(c1c(C2CC2)ccc2cncn12)C1CCC(c2ccc(F)cc2Cl)CC1 (centres unmarked) [Example D130, (4-(2-chloro-4-fluorophenyl)cyclohexyl)(6-cyclopropylimidazo[1,5-a]pyridin-5-yl)methanol]
25 | > 10000 nM | 38 nM | 167 nM | OC(c1c(C2CC2)ccc2cncn12)C1CCN(c2ccc(Cl)cc2)CC1 (centres unmarked) [Example D174, (1-(4-chlorophenyl)piperidin-4-yl)(6-cyclopropylimidazo[1,5-a]pyridin-5-yl)methanol]
26 | > 10000 nM | 5200 nM | > 10000 nM | Nc1ccc([C@H]2CC[C@H]([C@@H](O)c3c(C4CC4)ccc4cncn34)CC2)cc1 (single isomer, unassigned) [Example D122b]
27 | > 10000 nM | 18 nM | 103 nM | Nc1ccc([C@H]2CC[C@H]([C@H](O)c3c(C4CC4)ccc4cncn34)CC2)cc1 (single isomer, unassigned) [Example D122a]
28 | > 10000 nM | > 10000 nM | > 10000 nM | O[C@@H](c1c(C2CC2)ccn2cncc12)[C@H]1CC[C@H](c2cccc(F)c2)CC1 (single isomer, unassigned) [Example C109b]
29 | > 10000 nM | 15 nM | 14 nM | COc1cccc([C@H]2CC[C@H]([C@H](O)c3c(C(C)C)ccc4cncn34)CC2)c1 (single isomer, unassigned) [Example D169a]
30 | > 10000 nM | > 10000 nM | 7190 nM | O[C@@H](c1c(C2CC2)ccc2cncn12)[C@H]1CC[C@H](c2ccc3ccccc3c2)CC1 (single isomer, unassigned) [Example D136b]
31 | > 10000 nM | > 10000 nM | > 10000 nM | Cc1ccccc1[C@H]1CC[C@H]([C@@H](O)c2c(C3CC3)ccn3cncc23)CC1 (single isomer, unassigned) [Example C112b]
